Patent US9730889B2, “Steroid-sparing effects of beta-adrenergic inverse agonists and uses thereof” (University of Houston System, priority 2011, dated 2017)
Like-named read-outs stand apart in the source and are kept apart here.

Tests used:
[1] = test system: mucin content in the airway epithelium; assay: Airway epithelial mucin content (PAFS staining, mucin volume density) in OVA sensitized and challenged mice; assay type: in vivo, BALB/c mice; details: for reduction in mucin content: high dose: dexamethasone 4 mg/kg/day
Source text: (§1) Six-week to eight-week-old BALB/c mice (Jackson Animal Laboratory, Bar Harbor, Me.) were housed under specific pathogen-free conditions.
(§2) Mice were immunized against allergen by means of sensitization (once weekly intraperitoneal injection on days 0, 7, and 14) and challenge (once daily intranasal instillation for 5 days on days 41-45) with ovalbumin (OVA) as described (FIG. 1) (19).
(§3) Untreated sensitized and challenged mice or mice that had not undergone the sensitization and challenge process, received vehicle and were fed with normal mouse chow. […] Experimental mice were sacrificed on day 46.
Lungs were perfused with 4% paraformaldehyde in PBS (pH 7.0) via a tracheal cannula at room temperature, then removed from the thoracic cavity and further fixed overnight at 4° C. (25). After overnight fixation, lungs were embedded in paraffin and then sectioned and stained with periodic acid fluorescent Schiff's (PAFS) reagent to examine intracellular mucin. Tissue sections were examined under a 40× objective and images (MagnaFire 2.1 Optronics) were acquired prior to any measurements and analyzed (ImagePro Plus) by blinded investigators (25).

[2] = test system: cytokines in BAL fluid; assay: Cytokines in BAL fluid of OVA sensitized and challenged mice (multiplex ELISA); assay type: in vivo, BALB/c mice; details: Dex 4.0 mg/kg/day, Nad 250 ppm, 24 h after last OVA challenge
Source text: as §1, §2, §3
The supernatants from brochoalveolar lavage samples, collected 24 hours after the last challenge with OVA, were provided to Pierce Searchlight, Aushon BioSystems, Inc. in blinded fashion. The concentrations of eotaxin, macrophage-derived chemokine (MDC), thymus and activation regulated chemokine (TARC), interleukin (IL)-1α, IL-5, IL-6, IL-12p70, IL-13, IL-17, IL-23, interferon (IFN), tumor necrosis factor alpha (TNF-a) and transforming growth factor beta (TGF-β1) were measured using multiplex enzyme-linked immunosorbent assay.
Definition of abbreviations in Table 1 are Th1/2/17=T helper (1, 2, or 17) type inflammation; MDC=macrophage-derived chemokine; TARC=thymus and activation regulated chemokine; IL=interleukin-1a, IL-5, IL-6, IL-12p70, IL-13, IL-17, IL-23; IFNγ=interferon gamma; TNFα=tumor necrosis factor alpha; TGFβ1=transforming growth factor betal. The percentage from No Rx is in comparison to No OVA for each cytokine, while percentage of each drug treatment group [Dex (4.0 mg/kg/day); Nad (250 ppm); and Dex+Nad (0.4 mg/kg/day+25 ppm)] is in comparison to No Rx. Values are the means±SEM of data from 4 mice in each group (n=4); and *, indicate significant difference compared to No Rx, P<0.05.

[3] = test system: BAL eosinophils; assay: BAL eosinophil numbers in OVA sensitized and challenged mice; assay type: in vivo, BALB/c mice
Source text: as §1, §2, §3
Brochoalveolar lavage (BAL) fluid was acquired via infusion and recovery of cold PBS (2×1 ml) through the tracheal cannula from euthanized (pentobarbital 0.1 ml of 65 mg/ml) mice. Brochoalveolar lavage total leukocyte count and differentiated cell counts were performed as described (19).
Leukocytes and cytokines were measured in BAL fluid of OVA-sensitized mice 24 hours after the last of five daily nasal challenges with OVA (FIG. 1).

[4] = test system: mucin content; details: previous study (19), cited from earlier work
[5] = test system: airway hyperresponsiveness; details: mild asthmatics, dose escalation protocol; cited from earlier work
[6] = intermediate doses: dexamethasone 0.4 mg/kg/day IP 8 days, nadolol 25 ppm in chow 28 days, BAL 24 h after last OVA challenge
[7] = low doses: dexamethasone 0.1 mg/kg/day IP 8 days, nadolol 5 ppm in chow 28 days, BAL 24 h after last OVA challenge

Structure (SMILES) | reduction in mucin content ([1]; nadolol 250 ppm) [%] | IL-1a, percentage in comparison to No Rx [2] | IL-5, percentage in comparison to No Rx [2] | IL-6, percentage in comparison to No Rx [2] | IL-12p70, percentage in comparison to No Rx [2] | IL-13, percentage in comparison to No Rx [2] | IL-17, percentage in comparison to No Rx [2] | IL-23, percentage in comparison to No Rx [2] | MDC, percentage in comparison to No Rx [2] | TARC, percentage in comparison to No Rx [2] | TGFβ1, percentage in comparison to No Rx [2] | TNFa, percentage in comparison to No Rx [2] | eotaxin, percentage in comparison to No Rx [2] | IFNg level in BAL fluid ([2]; mean ± SEM, n=4) [pg/mL] | IL-1a level in BAL fluid ([2]; mean ± SEM, n=4) [pg/mL] | IL-5 level in BAL fluid ([2]; mean ± SEM, n=4) [pg/mL] | IL-6 level in BAL fluid ([2]; mean ± SEM, n=4) [pg/mL] | IL-12p70 level in BAL fluid ([2]; mean ± SEM, n=4) [pg/mL] | IL-13 level in BAL fluid ([2]; mean ± SEM, n=4) [pg/mL] | IL-17 level in BAL fluid ([2]; mean ± SEM, n=4) [pg/mL] | further results
C[C@@H]1C[C@H]2[C@@H]3CCC4=CC(=O)C=C[C@]4(C)[C@@]3(F)[C@@H](O)C[C@]2(C)[C@@]1(O)C(=O)CO [dexamethasone] | 72 | (233%)* | (30%)* | (163%) | (180%) | (27%)* | (0) % | (200%) | (5%)* | (15%)* | (35%)* | (23%)* | (27%)* | 90 ± 1.1 | 35 ± 7.1 | 63 ± 19.3 | 39 ± 28.2 | 9 ± 1.3 | 12 ± 5.0 | 2 ± 0.4 | IFNg, percentage in comparison to No Rx [2]: (1500%); IL-23 level in BAL fluid ([2]; mean ± SEM, n=4): 74 ± 10.0 pg/mL; MDC level in BAL fluid ([2]; mean ± SEM, n=4): 10 ± 1.0 pg/mL; TARC level in BAL fluid ([2]; mean ± SEM, n=4): 475 ± 47.0 pg/mL; TGFβ1 level in BAL fluid ([2]; mean ± SEM, n=4): 4675 ± 792 pg/mL; TNFa level in BAL fluid ([2]; mean ± SEM, n=4): 14 ± 1.0 pg/mL; eotaxin level in BAL fluid ([2]; mean ± SEM, n=4): 12 ± 2.0 pg/mL; reduction in eosinophils ([3]; high-dose dexamethasone 4.0 mg/kg/day IP 8 days): 89%; reduction in eosinophils [3, 6]: 58%; reduction in eosinophils [3, 7]: 36%
CC(C)(C)NCC(O)COc1cccc2c1CC(O)C(O)C2 (stereo not shown) [nadolol] | 86 | (73%) | (56%)* | (88%) | (140%) | (13%)* | (50%) | (76%) | (27%)* | (19%)* | (45%)* | (53%)* | (80%) | 7 ± 1.1 | 11 ± 5.0 | 118 ± 33.0 | 21 ± 10.0 | 7 ± 1.0 | 6 ± 2.0 | 1 ± 0.2 | change in mucin content ([1]; all doses of chronic nadolol (5, 25, 250 ppm)): significant decreases; mucin volume density after 7 days of treatment vs vehicle treated control mice ([1]; nadolol 250 ppm, 7 days): significant reductions; day at which maximal effect on mucin volume density is achieved ([1]; nadolol 250 ppm, time course): 22 days; IL-23 level in BAL fluid ([2]; mean ± SEM, n=4): 28 ± 4.3 pg/mL; TARC level in BAL fluid ([2]; mean ± SEM, n=4): 593 ± 223.5 pg/mL; TGFβ1 level in BAL fluid ([2]; mean ± SEM, n=4): 5891 ± 710 pg/mL; TNFa level in BAL fluid ([2]; mean ± SEM, n=4): 33 ± 8.0 pg/mL; eotaxin level in BAL fluid ([2]; mean ± SEM, n=4): 36 ± 6.0 pg/mL; reduction in eosinophils [3, 6]: 36%; reduction in eosinophils [3, 7]: 20%; maximal reductions in airway eosinophilia from OVA S/C ([3]; nadolol 250 ppm, detected at day 7 of treatment): ~50%; reduction in mucin content ([4]; 7 days of treatment with nadolol): very modest reduction; reduction in mucin content ([4]; 28 days of treatment with nadolol): ~90%; airway hyperresponsiveness [5]: reduction in airway hyperresponsiveness
